Experimental data as given in PMC3234597, “Two Panels of Steroid Receptor Luciferase Reporter Cell Lines for Compound Profiling” (Combinatorial Chemistry & High Throughput Screening, 2011).
Like-named read-outs stand apart in the source and are kept apart here.

Assays:
Type in all cases: cell-based
human ERα (full-length) = molecular target: T1, human ERα (full-length) (Homo sapiens, UniProt P03372, G400V); experiment: U2OS-ERα/3xERE luciferase reporter cell line (full-length receptor)
T1 sequence (P03372 1-595 G400V): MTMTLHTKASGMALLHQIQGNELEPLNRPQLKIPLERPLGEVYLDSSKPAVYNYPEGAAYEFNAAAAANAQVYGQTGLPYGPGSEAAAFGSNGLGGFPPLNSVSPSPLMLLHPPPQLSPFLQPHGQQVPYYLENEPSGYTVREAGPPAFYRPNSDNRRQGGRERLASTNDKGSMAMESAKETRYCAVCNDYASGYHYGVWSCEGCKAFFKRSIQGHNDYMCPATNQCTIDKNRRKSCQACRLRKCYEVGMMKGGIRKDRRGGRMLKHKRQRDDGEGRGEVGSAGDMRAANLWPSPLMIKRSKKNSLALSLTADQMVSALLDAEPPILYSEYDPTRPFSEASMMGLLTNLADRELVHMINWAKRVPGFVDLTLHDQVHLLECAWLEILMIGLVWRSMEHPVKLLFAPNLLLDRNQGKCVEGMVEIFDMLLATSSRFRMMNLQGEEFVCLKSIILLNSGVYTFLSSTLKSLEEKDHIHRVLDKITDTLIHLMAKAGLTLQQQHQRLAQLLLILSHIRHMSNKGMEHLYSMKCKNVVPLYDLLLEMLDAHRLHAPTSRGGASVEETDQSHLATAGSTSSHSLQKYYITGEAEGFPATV

[1] = molecular target: T2, ERα^wt-LBD fused to Gal4-DBD (Homo sapiens, UniProt P03372); experiment: U2OS-ERα^wt-LBD/9xGal4UAS luciferase reporter cell line
T2 construct: ERα-LBD (amino acids 303-595) based on GenBank NM_000125; expressed in transfected cells; host or cells: U2OS
T2 sequence (P03372 303-595): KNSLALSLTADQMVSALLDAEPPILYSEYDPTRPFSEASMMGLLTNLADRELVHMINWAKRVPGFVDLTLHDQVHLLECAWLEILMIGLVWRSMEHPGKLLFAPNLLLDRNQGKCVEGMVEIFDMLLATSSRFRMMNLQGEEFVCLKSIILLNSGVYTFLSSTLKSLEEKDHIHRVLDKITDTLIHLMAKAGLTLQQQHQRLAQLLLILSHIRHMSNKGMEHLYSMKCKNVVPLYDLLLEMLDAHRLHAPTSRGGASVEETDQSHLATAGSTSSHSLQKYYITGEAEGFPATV

[2] = molecular target: T3, ERα^G420C-LBD fused to Gal4-DBD (Homo sapiens, UniProt P03372, G420C); experiment: U2OS-ERα^G420C-LBD/9xGal4UAS luciferase reporter cell line
T3 construct: expressed in transfected cells; host or cells: U2OS
T3 sequence (P03372 311-547 G420C limits assumed): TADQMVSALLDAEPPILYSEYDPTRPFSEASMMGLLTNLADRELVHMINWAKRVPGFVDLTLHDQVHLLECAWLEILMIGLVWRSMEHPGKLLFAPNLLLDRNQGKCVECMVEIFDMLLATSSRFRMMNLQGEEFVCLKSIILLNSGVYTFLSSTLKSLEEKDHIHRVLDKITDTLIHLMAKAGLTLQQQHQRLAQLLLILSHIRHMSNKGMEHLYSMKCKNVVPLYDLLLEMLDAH

human ERβ (full-length) = molecular target: T4, human ERβ (full-length) (Homo sapiens, UniProt Q92731); experiment: U2OS-ERβ/3xERE luciferase reporter cell line (full-length receptor); conditions: read-out: Log EC50 (converted)
T4 construct: expression vectors encoding full-length steroid receptors: pcDNA3-hERα and pcDNA3-ERβ; expressed in transfected cells; host or cells: U2OS
T4 sequence (Q92731 whole entry): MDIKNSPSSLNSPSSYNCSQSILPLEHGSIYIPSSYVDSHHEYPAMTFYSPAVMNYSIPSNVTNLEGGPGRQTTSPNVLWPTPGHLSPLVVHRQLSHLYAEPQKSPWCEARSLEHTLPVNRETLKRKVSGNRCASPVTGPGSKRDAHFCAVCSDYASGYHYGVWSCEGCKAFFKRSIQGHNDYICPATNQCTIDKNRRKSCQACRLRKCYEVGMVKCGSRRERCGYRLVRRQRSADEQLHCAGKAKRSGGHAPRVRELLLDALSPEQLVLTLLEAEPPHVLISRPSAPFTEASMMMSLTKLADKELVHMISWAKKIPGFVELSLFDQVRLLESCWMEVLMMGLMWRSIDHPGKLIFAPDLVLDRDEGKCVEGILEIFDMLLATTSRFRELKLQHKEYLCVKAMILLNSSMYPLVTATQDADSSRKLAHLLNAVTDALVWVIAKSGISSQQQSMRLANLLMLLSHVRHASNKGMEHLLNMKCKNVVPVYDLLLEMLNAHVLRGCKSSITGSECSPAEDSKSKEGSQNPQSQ

[3] = molecular target: T5, ERβ-LBD fused to Gal4-DBD (Homo sapiens, UniProt Q92731); experiment: U2OS-ERβ-LBD/9xGal4UAS luciferase reporter cell line; conditions: read-out: Log EC50 (converted)
T5 construct: region comprising ERβ-LBD and a piece of the hinge region; expressed in transfected cells; host or cells: U2OS
T5 sequence (Q92731 264-498 limits assumed): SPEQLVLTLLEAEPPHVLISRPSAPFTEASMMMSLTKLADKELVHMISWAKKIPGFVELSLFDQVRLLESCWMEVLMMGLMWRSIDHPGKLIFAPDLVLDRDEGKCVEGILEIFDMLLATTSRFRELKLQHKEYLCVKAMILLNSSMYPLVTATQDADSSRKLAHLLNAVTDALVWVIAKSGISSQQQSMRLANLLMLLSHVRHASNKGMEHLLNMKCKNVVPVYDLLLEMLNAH

human MR (full-length) = molecular target: T6, human MR (full-length) (Homo sapiens, UniProt P08235); experiment: U2OS-MR/MMTV luciferase reporter cell line (full-length receptor); conditions: read-out: Log EC50 (converted)
T6 construct: expression vectors encoding full-length steroid receptors: pcDNA3-hAR, pcDNA3-hGR and pcDNA3-hMR; expressed in transfected cells; host or cells: U2OS
T6 sequence (P08235 1-984): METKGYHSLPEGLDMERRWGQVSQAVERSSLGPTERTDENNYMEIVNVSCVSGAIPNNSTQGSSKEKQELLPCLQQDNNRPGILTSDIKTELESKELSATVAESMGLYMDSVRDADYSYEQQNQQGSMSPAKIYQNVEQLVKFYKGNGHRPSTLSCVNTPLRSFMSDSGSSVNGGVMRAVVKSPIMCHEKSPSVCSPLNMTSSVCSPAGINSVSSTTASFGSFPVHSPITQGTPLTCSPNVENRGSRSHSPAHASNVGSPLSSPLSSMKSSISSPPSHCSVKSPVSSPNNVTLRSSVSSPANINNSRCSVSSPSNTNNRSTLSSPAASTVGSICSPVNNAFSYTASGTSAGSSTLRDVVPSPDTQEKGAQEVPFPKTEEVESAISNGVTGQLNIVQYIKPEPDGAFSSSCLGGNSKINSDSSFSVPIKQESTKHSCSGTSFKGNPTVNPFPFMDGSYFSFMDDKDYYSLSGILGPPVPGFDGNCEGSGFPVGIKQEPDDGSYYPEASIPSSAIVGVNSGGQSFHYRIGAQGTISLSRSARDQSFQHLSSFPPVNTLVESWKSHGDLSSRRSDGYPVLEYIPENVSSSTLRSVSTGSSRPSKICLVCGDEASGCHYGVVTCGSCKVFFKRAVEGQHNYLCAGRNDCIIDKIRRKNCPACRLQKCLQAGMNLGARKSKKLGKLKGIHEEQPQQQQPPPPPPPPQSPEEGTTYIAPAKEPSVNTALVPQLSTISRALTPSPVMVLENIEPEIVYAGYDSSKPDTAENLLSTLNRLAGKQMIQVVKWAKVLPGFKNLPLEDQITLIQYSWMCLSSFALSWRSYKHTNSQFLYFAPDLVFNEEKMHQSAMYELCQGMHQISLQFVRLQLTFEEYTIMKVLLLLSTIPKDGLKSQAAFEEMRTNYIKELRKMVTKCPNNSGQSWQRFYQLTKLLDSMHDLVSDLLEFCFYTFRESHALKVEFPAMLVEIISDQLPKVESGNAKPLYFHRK

MR-LBD fused to Gal4-DBD = molecular target: T7, MR-LBD fused to Gal4-DBD (Homo sapiens, UniProt P08235); experiment: U2OS-MR-LBD/9xGal4UAS luciferase reporter cell line; conditions: read-out: Log EC50 (converted)
T7 construct: MR-LBD was cloned by RT-PCR from total RNA isolated from HEK293 cells; expressed in transfected cells; host or cells: U2OS
T7 sequence (P08235 726-964 limits assumed): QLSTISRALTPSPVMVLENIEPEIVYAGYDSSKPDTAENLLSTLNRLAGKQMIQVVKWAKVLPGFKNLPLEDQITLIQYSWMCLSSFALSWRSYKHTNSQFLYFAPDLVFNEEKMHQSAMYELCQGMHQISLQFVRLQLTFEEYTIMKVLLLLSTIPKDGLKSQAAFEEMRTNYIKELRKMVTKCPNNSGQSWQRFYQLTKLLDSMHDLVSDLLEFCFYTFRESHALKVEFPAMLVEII

PR-LBD fused to Gal4-DBD = molecular target: T8, PR-LBD fused to Gal4-DBD (Homo sapiens, UniProt P06401); experiment: U2OS-PR-LBD/9xGal4UAS luciferase reporter cell line
T8 construct: PR-LBD region was PCR amplified using the following primer combination; host or cells: U2OS
T8 sequence (P06401 679-913 limits assumed): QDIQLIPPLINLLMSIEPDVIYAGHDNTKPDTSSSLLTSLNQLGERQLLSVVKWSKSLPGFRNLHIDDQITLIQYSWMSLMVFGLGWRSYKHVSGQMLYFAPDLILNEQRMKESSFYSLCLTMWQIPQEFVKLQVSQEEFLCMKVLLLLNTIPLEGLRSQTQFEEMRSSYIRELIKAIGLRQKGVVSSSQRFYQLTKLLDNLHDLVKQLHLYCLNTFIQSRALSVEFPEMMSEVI

human GR (full-length) [4] = molecular target: T9, human GR (full-length) (Homo sapiens, UniProt P04150); experiment: U2OS-GR/3xGRE luciferase reporter cell line (full-length receptor)
T9 construct: expression vectors encoding full-length steroid receptors: pcDNA3-hAR and pcDNA3-hGR; host or cells: U2OS
T9 sequence (P04150 1-777): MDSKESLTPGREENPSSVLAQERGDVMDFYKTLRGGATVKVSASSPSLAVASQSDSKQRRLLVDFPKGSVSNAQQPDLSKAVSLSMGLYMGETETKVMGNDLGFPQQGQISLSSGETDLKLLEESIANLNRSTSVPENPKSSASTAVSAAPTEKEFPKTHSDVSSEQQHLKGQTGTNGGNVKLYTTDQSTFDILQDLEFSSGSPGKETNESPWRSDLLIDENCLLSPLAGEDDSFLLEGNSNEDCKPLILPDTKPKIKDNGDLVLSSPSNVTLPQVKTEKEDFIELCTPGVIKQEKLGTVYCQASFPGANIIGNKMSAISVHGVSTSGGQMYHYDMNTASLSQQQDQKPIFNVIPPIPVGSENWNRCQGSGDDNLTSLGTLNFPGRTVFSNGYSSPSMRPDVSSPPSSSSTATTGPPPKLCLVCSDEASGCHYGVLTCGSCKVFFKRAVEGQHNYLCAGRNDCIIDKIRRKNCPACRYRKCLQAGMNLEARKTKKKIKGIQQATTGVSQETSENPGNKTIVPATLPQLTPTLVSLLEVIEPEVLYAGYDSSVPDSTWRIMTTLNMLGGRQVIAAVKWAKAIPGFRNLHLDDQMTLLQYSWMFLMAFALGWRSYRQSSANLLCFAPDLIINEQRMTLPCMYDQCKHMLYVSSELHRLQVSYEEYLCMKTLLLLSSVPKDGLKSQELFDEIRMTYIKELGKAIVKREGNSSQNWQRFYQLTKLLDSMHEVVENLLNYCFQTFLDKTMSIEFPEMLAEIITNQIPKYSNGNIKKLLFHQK

human GR (full-length) [5] = molecular target: T9, human GR (full-length); experiment: U2OS-GR/MMTV luciferase reporter cell line (full-length receptor)
GR-LBD fused to Gal4-DBD = molecular target: T10, GR-LBD fused to Gal4-DBD (Homo sapiens, UniProt P04150); experiment: U2OS-GR-LBD/9xGal4UAS luciferase reporter cell line
T10 construct: expressed in transfected cells; host or cells: U2OS
T10 sequence (P04150 524-758 limits assumed): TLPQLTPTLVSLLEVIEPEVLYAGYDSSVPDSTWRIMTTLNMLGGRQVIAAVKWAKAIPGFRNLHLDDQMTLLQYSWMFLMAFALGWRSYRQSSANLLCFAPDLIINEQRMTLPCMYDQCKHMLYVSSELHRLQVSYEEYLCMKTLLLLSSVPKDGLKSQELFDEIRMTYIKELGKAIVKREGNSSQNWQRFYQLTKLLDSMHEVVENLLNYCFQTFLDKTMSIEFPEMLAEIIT

CC(C)C(=O)Nc1ccc([N+](=O)[O-])c(C(F)(F)F)c1 [Flutamide, flutamide]
> 10 µM: EC50 (human ERα (full-length)) | EC50 [1] | EC50 [2] | EC50 (human ERβ (full-length)) | EC50 [3] | EC50 (human MR (full-length)) | EC50 (MR-LBD fused to Gal4-DBD) | IC50 (PR-LBD fused to Gal4-DBD; antagonist mode, PR-LBD/9xGal4UAS, log10 of molar IC50, mean ± SEM, read-out: Log IC50 (converted)) | EC50 (PR-LBD fused to Gal4-DBD; read-out: Log EC50 (converted))

CC(=O)S[C@@H]1CC2=CC(=O)CC[C@]2(C)[C@H]2CC[C@@]3(C)[C@@H](CC[C@@]34CCC(=O)O4)[C@H]12 [Spironolactone, spironolactone]
> 10 µM: EC50 (human ERα (full-length); Log EC50, agonist mode, ERα/3xERE, 20 h, value is log10 of molar EC50, mean ± SEM) | EC50 [1] | EC50 [2] | EC50 (human GR (full-length) [4]) | EC50 (human GR (full-length) [5]) | EC50 (GR-LBD fused to Gal4-DBD)
